Like-named read-outs stand apart in the source and are kept apart here.
What was measured:
EGFR (D746-750) = EGFR (D746-750) (Homo sapiens, UniProt P00533, DEL746-750); assay: HotSpot radiometric kinase assay, inhibition of EGFR 746-750 mutant; assay type: biochemical; conditions: 33P ATP, room temperature, 120 m
Experimental: (§1) Biochemical Assays for inhibition of wild-type and mutant EGFRs
(§2) Briefly, specific kinase/substrate pairs along with required cofactors were prepared in reaction buffer; 20 mM HEPES pH 7.5, 10 mM […], 1 mM EGTA, 0.02% Brij35, 0.02 mg/ml BSA, 0.1 mM Na3VO4, 2 mM DTT, 1% DMSO. Compounds were delivered into the reaction, followed ~20 minutes later by addition of a mixture of ATP (Sigma, St. Louis MO) and ^33P ATP (Perkin Elmer, Waltham MA) to a final concentration of […]. Reactions were carried out at room temperature for 120 m, followed by spotting of the reactions onto P81 ion exchange filter paper (Whatman Inc., Piscataway, NJ). Unbound phosphate was removed by extensive washing of filters in 0.75% phosphoric acid. […] IC50 values and curve fits were obtained using Prism (GraphPad Software).

EGFR (D770_N771insNPG) = EGFR (D770_N771insNPG) (Homo sapiens, UniProt P00533, INS770NPG); assay: HotSpot radiometric kinase assay, inhibition of EGFR (D770_N771insNPG) mutant; assay type: biochemical; conditions: 33P ATP, room temperature, 120 m
Chain of EGFR (D770_N771insNPG) (P00533 with tags, fused parts or gaps INS770NPG limits assumed): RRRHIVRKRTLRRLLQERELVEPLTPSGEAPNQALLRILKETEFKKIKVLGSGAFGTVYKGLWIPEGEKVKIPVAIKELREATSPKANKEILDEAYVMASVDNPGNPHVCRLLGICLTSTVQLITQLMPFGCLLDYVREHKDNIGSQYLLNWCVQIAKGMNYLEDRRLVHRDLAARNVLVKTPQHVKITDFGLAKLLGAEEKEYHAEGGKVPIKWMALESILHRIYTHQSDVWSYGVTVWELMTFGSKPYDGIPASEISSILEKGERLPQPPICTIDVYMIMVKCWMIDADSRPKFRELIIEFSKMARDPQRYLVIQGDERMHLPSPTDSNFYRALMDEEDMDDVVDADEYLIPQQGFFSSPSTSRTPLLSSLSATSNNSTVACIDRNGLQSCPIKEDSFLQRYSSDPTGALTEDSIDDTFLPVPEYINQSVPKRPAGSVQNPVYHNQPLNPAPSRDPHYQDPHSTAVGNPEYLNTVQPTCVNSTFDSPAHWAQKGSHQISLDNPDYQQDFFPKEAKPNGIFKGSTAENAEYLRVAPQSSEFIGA
Experimental: as §1, §2

EGFR (L858R/T790M/C797S) = EGFR (L858R/T790M/C797S) (Homo sapiens, UniProt P00533, C797S/L858R/T790M); assay: HotSpot radiometric kinase assay, inhibition of EGFR L858R/T790M/C797S mutant; assay type: biochemical; conditions: 33P ATP, room temperature, 120 m
Chain of EGFR (L858R/T790M/C797S) (P00533 25-1210 T790M/C797S/L858R): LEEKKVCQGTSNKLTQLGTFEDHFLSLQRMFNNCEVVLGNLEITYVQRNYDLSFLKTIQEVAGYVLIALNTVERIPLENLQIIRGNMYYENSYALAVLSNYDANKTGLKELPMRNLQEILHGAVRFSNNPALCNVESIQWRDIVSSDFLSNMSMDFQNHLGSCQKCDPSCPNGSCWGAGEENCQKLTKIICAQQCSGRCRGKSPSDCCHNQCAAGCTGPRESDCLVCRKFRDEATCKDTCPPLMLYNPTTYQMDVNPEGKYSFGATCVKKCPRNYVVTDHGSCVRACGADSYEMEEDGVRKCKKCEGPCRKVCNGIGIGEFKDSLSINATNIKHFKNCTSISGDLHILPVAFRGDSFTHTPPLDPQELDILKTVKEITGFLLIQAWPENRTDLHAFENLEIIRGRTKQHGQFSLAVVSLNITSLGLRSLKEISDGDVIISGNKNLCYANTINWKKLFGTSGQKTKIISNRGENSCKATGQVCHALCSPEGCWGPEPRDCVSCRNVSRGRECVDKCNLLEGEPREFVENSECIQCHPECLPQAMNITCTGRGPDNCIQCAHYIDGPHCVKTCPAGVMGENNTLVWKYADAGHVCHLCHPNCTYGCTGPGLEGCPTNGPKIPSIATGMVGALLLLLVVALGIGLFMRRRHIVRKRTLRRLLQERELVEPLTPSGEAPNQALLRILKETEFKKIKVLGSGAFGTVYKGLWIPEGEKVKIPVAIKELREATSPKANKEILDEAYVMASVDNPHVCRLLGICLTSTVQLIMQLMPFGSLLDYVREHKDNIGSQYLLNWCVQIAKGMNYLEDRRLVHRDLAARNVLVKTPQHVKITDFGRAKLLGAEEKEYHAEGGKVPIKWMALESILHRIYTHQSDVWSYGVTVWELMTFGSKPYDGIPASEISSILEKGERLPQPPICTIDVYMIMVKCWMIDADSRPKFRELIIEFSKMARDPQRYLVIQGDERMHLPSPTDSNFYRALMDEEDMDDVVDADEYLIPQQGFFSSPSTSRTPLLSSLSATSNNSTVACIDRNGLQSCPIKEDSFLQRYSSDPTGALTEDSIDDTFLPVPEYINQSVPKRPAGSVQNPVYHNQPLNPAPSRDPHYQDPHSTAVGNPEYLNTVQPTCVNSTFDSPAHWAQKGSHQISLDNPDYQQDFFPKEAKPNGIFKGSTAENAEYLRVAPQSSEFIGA
Experimental: as §1, §2

EGFR (D746-750/C797S) = EGFR (D746-750/C797S) (Homo sapiens, UniProt P00533, C797S/DEL746-750); assay: HotSpot radiometric kinase assay, inhibition of EGFR 746-750/C797S mutant; assay type: biochemical; conditions: 33P ATP, room temperature, 120 m
Chain of EGFR (D746-750/C797S) (P00533 with tags, fused parts or gaps DEL746-750/C797S): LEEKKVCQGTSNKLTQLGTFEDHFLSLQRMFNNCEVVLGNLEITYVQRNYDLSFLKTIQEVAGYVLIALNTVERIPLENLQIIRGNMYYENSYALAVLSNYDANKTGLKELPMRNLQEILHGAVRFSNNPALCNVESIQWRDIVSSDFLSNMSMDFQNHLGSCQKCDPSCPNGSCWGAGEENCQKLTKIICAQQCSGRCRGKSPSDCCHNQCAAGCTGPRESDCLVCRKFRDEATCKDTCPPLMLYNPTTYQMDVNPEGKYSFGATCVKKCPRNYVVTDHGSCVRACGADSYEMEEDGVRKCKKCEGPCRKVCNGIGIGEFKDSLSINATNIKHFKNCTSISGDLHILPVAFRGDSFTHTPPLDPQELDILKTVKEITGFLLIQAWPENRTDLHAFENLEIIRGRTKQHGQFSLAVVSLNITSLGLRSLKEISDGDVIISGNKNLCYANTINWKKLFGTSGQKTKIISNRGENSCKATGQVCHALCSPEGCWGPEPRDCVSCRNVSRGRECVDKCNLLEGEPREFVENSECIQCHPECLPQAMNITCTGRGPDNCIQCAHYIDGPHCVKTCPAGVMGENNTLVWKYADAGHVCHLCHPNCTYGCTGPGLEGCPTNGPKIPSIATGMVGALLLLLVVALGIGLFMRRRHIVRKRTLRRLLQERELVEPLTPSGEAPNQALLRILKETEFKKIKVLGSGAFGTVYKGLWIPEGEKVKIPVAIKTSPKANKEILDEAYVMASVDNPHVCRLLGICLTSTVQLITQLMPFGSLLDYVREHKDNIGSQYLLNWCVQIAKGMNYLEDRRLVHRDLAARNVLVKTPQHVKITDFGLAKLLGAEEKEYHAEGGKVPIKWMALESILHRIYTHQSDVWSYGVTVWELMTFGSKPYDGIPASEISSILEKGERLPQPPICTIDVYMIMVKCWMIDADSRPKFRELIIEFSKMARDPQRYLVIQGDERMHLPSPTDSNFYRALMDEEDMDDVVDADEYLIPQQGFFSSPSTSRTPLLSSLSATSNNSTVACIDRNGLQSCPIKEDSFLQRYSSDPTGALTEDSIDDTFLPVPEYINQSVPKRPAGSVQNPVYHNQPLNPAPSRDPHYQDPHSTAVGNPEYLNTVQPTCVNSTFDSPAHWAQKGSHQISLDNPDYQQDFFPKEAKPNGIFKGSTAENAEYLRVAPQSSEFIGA
Experimental: as §1, §2

NCI-H1975 cells = assay: 5-Day CellTiter Glo (CTG) cell proliferation assay, NCI-H1975; assay type: cell-based; conditions: Homo sapiens, read-out: H1975 IC50
Experimental: (§3) 5-Day CellTiter Glo (CTG) Cell Proliferation Assays (PC9, H1975, H827)
(§4) Cell proliferation assays were carried out in NSCLC cells with EGFR activation mutations. Both PC-9 cells and HCC827 cells (purchased from DSMZ) carry a Glu746-Ala750 deletion (d746-750) mutation in exon 19 of the EGFR gene and NCI-H1975 cells carry both L858R activation mutation and T790M gatekeeper mutation in the EGFR gene. One thousand PC-9, NCI-H1975 or HCC827 cells/100 μL per well were seeded in 96-well black plate with transparent bottom and then treated with indicated compounds in a 9-dose dilution series dispensed using TECAN d300e liquid dispenser. Cells were incubated with compounds for 120 hours at 37° C. and 5% CO2. Cell proliferation was measured using CellTiter-Glo 2.0 luciferase-based ATP detection assay (Promega, Madison, WI) at […] per well following the manufacturer's protocol. Plates were then read on a TECAN Sparks multimode microplate reader. Data was analyzed using GraphPad Prism 9 (GraphPad Software, San Diego, CA) to obtain IC50 values.

[1] = molecular target: T1, pEGFR, A431 cells (wildtype EGFR) (Homo sapiens, UniProt P00533); assay: Cellular EGFR phosphorylation assay (LANCE Ultra TR-FRET) in A431 cells; assay type: cell-based; conditions: 4 hours at 37° C., 40 ng/mL EGF for the final 10 minutes, read-out: A431 pEGFR IC50
T1 construct: pEGFR (Tyr1068) TR-FRET
Experimental: (§5) Cellular EGFR Phosphorylation Assays
(§6) EGFR phosphorylation assays were conducted in NSCLC cells with EGFR activation mutations. PC-9 cells (purchased from Aldrich-Sigma) carry a Glu746-Ala750 deletion (d746-750) mutation in exon 19 of the EGFR gene and NCI-H1975 cells (purchased from ATCC) carry both L858R activation mutation and T790M gatekeeper mutation in the EGFR gene. A431 cells (purchased from ATCC) with amplification of wildtype EGFR, derived from epidermoid carcinoma, were used to measure the activity against wildtype EGFR. All cells were seeded in 96-well plates. For PC-9 and NCI-H1975 cells, 50 thousand cells were seeded per well. For A431 cells, 30 thousand cells were seeded per well. The next day, cells were exposed to compound for 4 hours at 37° C. and 5% CO2. Compounds were diluted in DMSO and added to cells in a 9-dose, 3-fold dilution, titration curve using TECAN d300e liquid dispenser. For A431 cells, 40 ng/mL of EGF was added to the media for the final 10 minutes of incubation. EGFR phosphorylation was measured using phospho-EGFR (Try1068) LANCE Ultra TR-FRET Detection Kit (TRF4015M) from PerkinElmer according to manufacturer's instructions. In brief, cells were lysed with 40 μL of lysis buffer plus 1× Halt protease and phosphatase inhibitor cocktail (Thermo 78441) and by incubation at room temperature for 1 h on a microplate shaker (350 rpm). 15 μ L of cell lysate was transferred to 384-well white plate and 5 μL of Europium- and ULight-labeled antibodies diluted in 1× detection buffer was added to each well. After 4-6 hours of incubation at room temperature, plates were then read on a TECAN Sparks multimode microplate reader. Data was analyzed using GraphPad Prism 9 (GraphPad Software, San Diego, CA) to obtain IC50 values.

HCC827 cells = assay: 5-Day CellTiter Glo (CTG) cell proliferation assay, HCC827; assay type: cell-based; conditions: Homo sapiens, read-out: HCC827 IC50
Experimental: as §3, §4

[2] = molecular target: T2, pEGFR, NCI-H1975 cells (L858R/T790M EGFR) (Homo sapiens, UniProt P00533, L858R/T790M); assay: Cellular EGFR phosphorylation assay (LANCE Ultra TR-FRET) in NCI-H1975 cells; assay type: cell-based; conditions: 4 hours at 37° C., read-out: H1975 pEGFR IC50
T2 construct: pEGFR (Tyr1068) TR-FRET
Experimental: as §5, §6

[3] = molecular target: T3, pEGFR, PC-9 cells (d746-750 EGFR) (Homo sapiens, UniProt P00533, DEL746-750); assay: Cellular EGFR phosphorylation assay (LANCE Ultra TR-FRET) in PC-9 cells; assay type: cell-based; conditions: 4 hours at 37° C., read-out: PC-9 pEGFR IC50
T3 construct: pEGFR (Tyr1068) TR-FRET
Experimental: as §5, §6

PC-9 cells = assay: 5-Day CellTiter Glo (CTG) cell proliferation assay, PC-9; assay type: cell-based; conditions: Homo sapiens, read-out: PC-9 IC50
Experimental: as §3, §4

Chain of EGFR (D746-750) (P00533 with tags, fused parts or gaps DEL746-750): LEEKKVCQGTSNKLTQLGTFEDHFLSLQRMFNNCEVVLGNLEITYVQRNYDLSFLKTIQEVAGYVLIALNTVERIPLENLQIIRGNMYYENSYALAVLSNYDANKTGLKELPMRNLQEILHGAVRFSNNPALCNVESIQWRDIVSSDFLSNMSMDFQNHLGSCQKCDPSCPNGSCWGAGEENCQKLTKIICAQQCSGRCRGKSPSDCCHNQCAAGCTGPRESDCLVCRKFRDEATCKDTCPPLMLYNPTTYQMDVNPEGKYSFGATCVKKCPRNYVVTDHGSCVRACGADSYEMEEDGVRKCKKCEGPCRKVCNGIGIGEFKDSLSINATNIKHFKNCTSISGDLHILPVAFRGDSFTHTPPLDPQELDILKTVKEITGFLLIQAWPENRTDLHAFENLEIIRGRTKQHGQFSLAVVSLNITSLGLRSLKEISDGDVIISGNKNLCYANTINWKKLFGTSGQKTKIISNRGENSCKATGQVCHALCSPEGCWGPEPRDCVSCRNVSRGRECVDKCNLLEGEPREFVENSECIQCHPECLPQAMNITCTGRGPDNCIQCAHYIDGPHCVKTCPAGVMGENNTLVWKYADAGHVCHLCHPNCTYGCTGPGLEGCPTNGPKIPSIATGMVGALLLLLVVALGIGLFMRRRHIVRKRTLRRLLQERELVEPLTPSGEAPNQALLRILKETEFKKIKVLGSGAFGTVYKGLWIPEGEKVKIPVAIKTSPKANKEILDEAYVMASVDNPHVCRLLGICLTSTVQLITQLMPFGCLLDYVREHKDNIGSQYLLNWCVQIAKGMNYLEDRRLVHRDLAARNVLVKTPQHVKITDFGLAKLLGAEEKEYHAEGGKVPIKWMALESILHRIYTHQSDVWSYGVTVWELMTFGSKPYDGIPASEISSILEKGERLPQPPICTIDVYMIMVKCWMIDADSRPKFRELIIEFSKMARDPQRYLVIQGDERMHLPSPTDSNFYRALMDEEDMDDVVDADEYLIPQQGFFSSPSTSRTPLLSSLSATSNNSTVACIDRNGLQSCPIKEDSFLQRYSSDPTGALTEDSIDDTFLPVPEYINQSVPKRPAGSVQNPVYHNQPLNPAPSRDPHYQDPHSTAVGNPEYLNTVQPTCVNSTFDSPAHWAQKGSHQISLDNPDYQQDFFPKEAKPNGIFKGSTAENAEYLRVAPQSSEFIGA

Row | Compound | IC50 (EGFR (D746-750)) | IC50 (EGFR (D770_N771insNPG)) | IC50 (EGFR (L858R/T790M/C797S)) | IC50 (EGFR (D746-750/C797S)) | IC50 (NCI-H1975 cells; NCI-H1975 cells (L858R/T790M EGFR), 5-day CTG proliferation, 120 hours) | IC50 [1] | IC50 (HCC827 cells; HCC827 cells (d746-750 EGFR), 5-day CTG proliferation, 120 hours) | IC50 [2] | IC50 [3] | IC50 (PC-9 cells; PC-9 cells (d746-750 EGFR), 5-day CTG proliferation, 120 hours) | IC50 (NCI-H1975 cells; NCI-H1975, 120 h) | IC50 (HCC827 cells; HCC827, 120 h) | IC50 (PC-9 cells; PC-9, 120 h)
1 | Cc1nn(C)c2c1-c1cc3c(n[nH]c3cn1)/C=C/c1c(OCC#N)nn(CCO)c1CN(C)[C@H](C)CO2 [Ex. 49, {[(11R,17E)-14-(2-hydroxyethyl)-6,8,11,12-tetramethyl-2,10,11,12,13,14-hexahydro-8H-5,3-(azenometheno)tripyrazolo[3,4-f:3′,4′-j:4″,3″-n][1,4]oxazacyclopentadecin-16-yl]oxy}acetonitrile] | 0.12 nM | 0.19 nM | 0.21 nM | 0.34 nM |  |  |  |  |  |  |  |  | 
2 | Cc1nn(CCO)c2c1/C=C/c1n[nH]c3c(C)nc(cc13)-c1cnn(C)c1O[C@@H](C)CN(C)C2 [Ex. 51, 2-[(10S,17E)-8,10,12,16,20-pentamethyl-2,8,10,11,12,13-hexahydro-14H-5,3-(azenometheno)tripyrazolo[3,4-f:3′,4′-j:4″,3″-n][1,4]oxazacyclopentadecin-14-yl]ethan-1-ol] | 0.31 nM | 1.11 nM | 0.37 nM | 0.83 nM |  |  |  |  |  |  |  |  | 

More lines, now with the values ahead:

Row | IC50 (EGFR (D746-750)) | IC50 (EGFR (D770_N771insNPG)) | IC50 (EGFR (L858R/T790M/C797S)) | IC50 (EGFR (D746-750/C797S)) | IC50 (NCI-H1975 cells; NCI-H1975 cells (L858R/T790M EGFR), 5-day CTG proliferation, 120 hours) | IC50 [1] | IC50 (HCC827 cells; HCC827 cells (d746-750 EGFR), 5-day CTG proliferation, 120 hours) | IC50 [2] | IC50 [3] | IC50 (PC-9 cells; PC-9 cells (d746-750 EGFR), 5-day CTG proliferation, 120 hours) | IC50 (NCI-H1975 cells; NCI-H1975, 120 h) | IC50 (HCC827 cells; HCC827, 120 h) | IC50 (PC-9 cells; PC-9, 120 h) | Compound
3 | 0.21 nM | 0.25 nM | 0.46 nM | 0.71 nM |  |  |  |  |  |  |  |  |  | Cc1nn(C)c2c1-c1cc3c(n[nH]c3c(C)n1)/C=C/c1c(OCC#N)nn([C@@H](C)CO)c1CN(C)C[C@H](C)O2 [Ex. 52]
4 |  |  |  |  | 4.89 nM | 26.6 nM | 0.42 nM | 3.24 nM | 2.04 nM | 1.55 nM |  |  |  | Cc1nn(C)c2c1-c1cc3c(n[nH]c3c(C)n1)/C=C/c1c(OCC#N)nn([C@@H](C)CO)c1CN(CC(F)F)C[C@H](C)O2 [Ex. 151, {[(10S,17E)-12-(2,2-difluoroethyl)-14-[(2S)-1-hydroxypropan-2-yl]-6,8,10,20-tetramethyl-2,10,11,12,13,14-hexahydro-8H-5,3-(azenometheno)tripyrazolo[3,4-f:3′,4′-j:4″,3″-n][1,4]oxazacyclopentadecin-16-yl]oxy}acetonitrile]
5 |  |  |  |  |  | 5.88 nM |  | 1.82 nM | 0.97 nM |  | 0.57 nM | 0.23 nM | 0.36 nM | [2H]C([2H])([2H])C([2H])([2H])Oc1nn([C@@H](C)CO)c2c1/C=C/c1n[nH]c3cnc(cc13)-c1c(C)nn(C)c1O[C@@H](C)CN(C)C2 [Ex. 87, (2S)-2-[(10S,17E)-16-[(^2H5)ethyloxy]-6,8,10,12-tetramethyl-2,8,10,11,12,13-hexahydro-14H-5,3-(azenometheno)tripyrazolo[3,4-f:3′,4′-j:4″,3″-n][1,4]oxazacyclopentadecin-14-yl]propan-1-ol]

— US20260317344A1, “EGFR INHIBITORS FOR TREATING DISEASE” (BLOSSOMHILL THERAPEUTICS, INC., priority 2023, published 2026)
